From patent US8053424B2, “Composition and method of treating hearing loss” (The Regents of the University of Michigan, priority 2006, dated 2011)

Test system: guinea pigs
Assay: Threshold shift by auditory brainstem response (ABR) testing after 120 dB SPL octave band noise
Type: in vivo, guinea pigs (NIH outbred strain)
Conditions: FIG. 1-3 comparison between treatments
Description: In guinea pig studies, hearing loss and the efficacy of the composition of the subject invention for treating hearing loss is measured as an average difference in threshold shift from baseline threshold sensitivity at 4, 8, and 16 kHz, as compared to an untreated control, after exposure to 120 decibel SPL Octave Band Noise centered at 4 kHz for five hours.
To obtain those results, the composition is typically injected each day, twice a day, for three days prior to exposure to the noise and injected again each day for at least five days, typically up to ten days, subsequent to the exposure to the noise. The threshold shift is measured 10 days after exposure to the noise using auditory brainstem response (ABR) testing.
In order to determine efficacy of the composition of the present invention in treating hearing loss, baseline threshold sensitivity of the guinea pigs is measured binaurally using auditory brainstem response testing at 4, 8, and 16 kHz.
For Example 1, the guinea pigs are first treated each day, twice a day, for three days prior to exposure to 120-dB SPL Octave Band Noise centered at 4 kHz for 5 hours. The noise causes trauma to middle or inner ears of the guinea pigs and is sufficient to cause permanent threshold shift, i.e., permanent hearing loss. […] Ten days after the noise exposure, auditory sensitivity is measured using ABR. […]

SMILES	effect in minimizing threshold shift (additive effect), in words
O=C([O-])c1ccccc1O.[Na+] [salicylate, sodium salicylate]	do not exhibit the same additive effect
Cc1c(C)c2c(c(C)c1O)CCC(C)(C(=O)O)O2 (centres unmarked) [Trolox®]	do not exhibit the same additive effect
